Test results as given in patent publication US20240197888A1, “SOS1 PROTEIN DEGRADERS, PHARMACEUTICAL COMPOSITIONS THEREOF, AND THEIR THERAPEUTIC APPLICATIONS” (BioTheryX, Inc., priority 2021, published 2024).

Experiments:
Type in all cases: cell-based
[1] = tested on: SW480 (G12V) cells; experiment: Cell viability assay (CELLTITER-GLO), SW480 cells; details: Homo sapiens, 72 h, Inhibition of cancerous cells, 3 days incubation, luminescence
Procedure: (§1) AsPC-1, H358, and SW48 cells were cultured in RPMI 1640 media supplemented with 10% fetal bovine serum, streptomycin, and penicillin. Lovo and SW480 cells were cultured in DMEM media supplemented with 10% fetal bovine serum, streptomycin, and penicillin. The cell lines were plated in their respective medium supplemented with 2.5% fetal bovine serum, streptomycin, and penicillin. All cell lines were plated in white walled 96-well plates at 2,000 cells/well or 384-well plates at 500 cells/well, except Lovo, which were plated at 4,000 or 1,000 cells/well, respectively. The cells were incubated in DMSO (control) or a compound for 3 days at 37° C. under 5% CO2. A CELLTITER-GLO® reagent ([…] was then added to each well. After a 10 min incubation with shaking, luminescence was measured using an ENVISION® multimode plate reader. IC50 values are summarized in Table 1.

[2] = tested on: SW48 (wt) cells; experiment: Cell viability assay (CELLTITER-GLO), SW48 cells; details: Homo sapiens, 72 h, Inhibition of cancerous cells, 3 days incubation, luminescence
Procedure: as §1

[3] = tested on: H358 (G12C) cells; experiment: Cell viability assay (CELLTITER-GLO), H358 cells; details: Homo sapiens, NCI-H358, 72 h, Inhibition of cancerous cells, 3 days incubation, luminescence
Procedure: as §1

[4] = tested on: Lovo (G13D) cells; experiment: Cell viability assay (CELLTITER-GLO), Lovo cells; details: Homo sapiens, 72 h, Inhibition of cancerous cells, 3 days incubation, luminescence
Procedure: as §1

[5] = tested on: AsPC-1 (G12D) cells; experiment: Cell viability assay (CELLTITER-GLO), AsPC-1 cells; details: Homo sapiens, ASPC1, 72 h, Inhibition of cancerous cells, 3 days incubation, luminescence
Procedure: as §1

Row | SMILES | IC50 [1] [µM] | IC50 [2] [µM] | IC50 [3] [µM] | IC50 [4] [µM] | IC50 [5] [µM]
1 | CNCc1ccccc1-c1csc(C(C)Nc2nc(C)nc3cc(OCCCCCCCN4CCC(C(F)(F)F)CC4)c(OC)cc23)c1 (stereo in doubt) [Compound A66, (R)-6-Methoxy-2-methyl-N-(1-(4-(2-((methylamino)methyl)phenyl)thiophen-2-yl)ethyl)-7-((7-(4-(trifluoromethyl)piperidin-1-yl)heptyl)oxy)quinazolin-4-amine] | 0.55 | 0.82 | 1.2 | 1.1 | 2
2 | CNCc1ccccc1-c1csc([C@@H](C)Nc2nc(C)nc3cc(OCCCCCCCC4CCC(c5ccccc5)CC4)c(OC)cc23)c1 (stereo partly drawn) [Compound A60, (R)-6-Methoxy-2-methyl-N-(1-(4-(2-((methylamino)methyl)phenyl)thiophen-2-yl)ethyl)-7-((7-(4-phenylcyclohexyl)heptyl)oxy)quinazolin-4-amine] | 0.25 | 0.17 | 0.53 | 0.24 | 0.51
3 | CNCc1ccccc1-c1csc([C@@H](C)Nc2nc(C)nc3cc(OCCC(C)(C)C)c(OC)cc23)c1 [Compound A62, (R)-7-(3,3-Dimethylbutoxy)-6-methoxy-2-methyl-N-(1-(4-(2-((methylamino)-methyl)phenyl)thiophen-2-yl)ethyl)quinazolin-4-amine] | 0.45 | 0.53 | 1.3 | 0.5 | 1.1
4 | CNCc1ccccc1-c1csc([C@H](C)Nc2nc(C)nc3cc(OCCC(C)(C)C)c(OC)cc23)c1 [Compound A63, (S)-7-(3,3-Dimethylbutoxy)-6-methoxy-2-methyl-N-(1-(4-(2-((methylamino)-methyl)phenyl)thiophen-2-yl)ethyl)quinazolin-4-amine] | 0.46 | 0.53 | 1.1 | 0.42 | 1
5 | CNCc1ccccc1-c1csc([C@@H](C)Nc2nc(C)nc3cc(OCCCCCCCN4CCN(C(C)=O)CC4)c(OC)cc23)c1 [Compound A64, (R)-1-(4-(7-((6-Methoxy-2-methyl-4-((1-(4-(2-((methylamino)methyl)phenyl)-thiophen-2-yl)ethyl)amino)quinazolin-7-yl)oxy)heptyl)piperazin-1-yl)ethan-1-one] | 0.46 | 0.68 | 1.4 | 0.45 | 1.1
6 | CNCc1ccccc1-c1csc([C@H](C)Nc2nc(C)nc3cc(OCCCCCCCN4CCN(C(C)=O)CC4)c(OC)cc23)c1 [Compound A65, (S)-1-(4-(7-((6-Methoxy-2-methyl-4-((1-(4-(2-((methylamino)methyl)phenyl)-thiophen-2-yl)ethyl)amino)quinazolin-7-yl)oxy)heptyl)piperazin-1-yl)ethan-1-one] | 0.38 | 0.53 | 1.1 | 0.34 | 0.68
7 | CNCc1ccccc1-c1csc([C@@H](C)Nc2nc(C)nc3cc(OCCCCCCCN4CCC(C(F)(F)F)CC4)c(OC)cc23)c1 [Compound A67, (R)-6-Methoxy-2-methyl-N-(1-(4-(2-((methylamino)methyl)phenyl)thiophen-2-yl)ethyl)-7-((7-(4-(trifluoromethyl)piperidin-1-yl)heptyl)oxy)quinazolin-4-amine] | 0.44 | 0.53 | 1.2 | 0.54 | 0.59
8 | CNCc1ccccc1-c1csc([C@@H](C)Nc2nc(C)nc3cc(OCCCCCCC(=O)N4CCCCC4)c(OC)cc23)c1 [Compound A68, (R)-7-((6-Methoxy-2-methyl-4-((1-(4-(2-((methylamino)methyl)phenyl)thiophen-2-yl)ethyl)amino)quinazolin-7-yl)oxy)-1-(piperidin-1-yl)heptan-1-one] | 0.36 | 0.55 | 0.65 | 0.36 | 1.5
9 | CNCc1ccccc1-c1csc([C@H](C)Nc2nc(C)nc3cc(OCCCCCCC(=O)N4CCCCC4)c(OC)cc23)c1 [Compound A69, (S)-7-((6-Methoxy-2-methyl-4-((1-(4-(2-((methylamino)methyl)phenyl)thiophen-2-yl)ethyl)amino)quinazolin-7-yl)oxy)-1-(piperidin-1-yl)heptan-1-one] | 0.41 | 0.66 | 0.93 | 0.72 | 2
10 | COc1cc2c(N[C@H](C)c3cccc(Br)c3)nc(C)nc2cc1OCCCCCCCNCCC(F)(F)F [Compound A70, (R)—N-(1-(3-Bromophenyl)ethyl)-6-methoxy-2-methyl-7-((7-((3,3,3-trifluoro-propyl)amino)heptyl)oxy)quinazolin-4-amine] | 0.93 | 0.98 | 1.4 | 0.5 | 1.3
11 | COc1cc2c(N[C@H](C)c3cccc(Br)c3)nc(C)nc2cc1OCCCCCCCN1CCC2(CCNCC2)CC1 [Compound A71, (R)-7-((7-(3,9-Diazaspiro[5.5]undecan-3-yl)heptyl)oxy)-N-(1-(3-bromophenyl)-ethyl)-6-methoxy-2-methylquinazolin-4-amine] | 1.5 | 1.4 | 2.8 | 1.4 | 2.7
12 | COc1cc2c(N[C@H](C)c3cccc(Br)c3)nc(C)nc2cc1OCCCCCCCN1CCC2(CC1)CCN(C(=O)OC(C)(C)C)CC2 [Compound A72, Tert-butyl (R)-9-(7-((4-((1-(3-bromophenyl)ethyl)amino)-6-methoxy-2-methyl-quinazolin-7-yl)oxy)heptyl)-3,9-diazaspiro[5.5]undecane-3-carboxylate] | 0.48 | 0.64 | 1.1 | 0.39 | 1
13 | COc1cc2nc(C)nc(N[C@H](C)c3cccc(Br)c3)c2cc1OC [reference compound] | 3.4 | 3.6 | 3.2 | 2.5 | 5.1
14 | CNCc1ccccc1-c1csc([C@@H](C)Nc2nc(C)nc3cc(OC)c(OC)cc23)c1 [reference compound] | 1 | 1.3 | 1.7 | 0.69 | 3.5
15 | COc1cc2nc(C)nc(N[C@H](C)c3cc(N)cc(C(F)(F)F)c3)c2cc1OC [reference compound] | > 10 | > 10 | > 10 | > 10 | > 10
16 | COc1cc2nc(C)nc(N[C@H](C)c3cccc(C(F)(F)CO)c3)c2cc1OC [reference compound] | > 10 | > 10 | > 10 | > 10 | > 10
